Common to all, as to assay: NCI-60 cell line screen, 48 h
The test system of experiment [1] is HOP-92 NSCLC.
Experiment [2] relates to IGROV1 ovarian.
Experiment [3] deals with OVCAR-8 ovarian.
For experiment [4], the system named is RPMI-8226 leukemia.
Experiment [5] deals with SK-MEL-2 melanoma.
In experiment [6] the test system is SK-MEL-28 melanoma.
Experiment [7] concerns SNB-19 CNS.
The test system of experiment [8] is U251 CNS.
Experiment [9] relates to UO-31 renal.
Experiment [10] has as its system DU-145 prostate.

Each structure is given as a SMILES string.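 48-hour exposure; five concentrations; linearly interpolated endpoints. TGI: concentration producing complete growth inhibition.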

Consider `O=C1c2ccccc2C2C1N2C(=O)C(F)(F)F` (stereo unspecified), for which the TGI in [1], in [2], in [3], in [4], in experiment [5] and in [6] was more than 100 µM in each case. For the same compound, the TGI in experiment [7], in experiment [8] and in experiment [9] was more than 100 µM in each case.
On to `COc1nc(N)c(C(=O)CCl)c(=O)n1C`, for which the TGI was 16.1 µM in experiment [1]; 30.2 µM in [2]; 52.8 µM in experiment [3]; 32.4 µM in experiment [4]; 25.1 µM in [5]; 26.4 µM in [6]. Further, the TGI in experiment [7] was determined as 52 µM; in [8], 29.9 µM; in [9], 67 µM.
With `CC[C@@]1(O)C(=O)OCc2c1cc1n(c2=O)Cc2c-1nc1ccccc1c2/C=N\NC(=O)CN`, the TGI was 21.8 µM in experiment [1]; more than 66.7 µM in [2]; more than 95.5 µM in experiment [3]; 18.8 µM in experiment [4]; more than 100 µM in experiment [5]; more than 100 µM in [6]. For the same compound, the TGI in experiment [8] is more than 61.5 µM; in experiment [9], 5.38 µM.
On to `CNC(=O)C(C)C1CCC2(C)C=CC(=O)C(C)=C2C1O` (stereo unspecified), for which the TGI in [1] was more than 100 µM; in experiment [2], more than 100 µM; in [3], more than 87.9 µM; in [4] it was more than 100 µM; in [5], more than 100 µM; in [6], more than 100 µM. Further, the TGI in experiment [7] is more than 100 µM; in experiment [8], more than 64.9 µM; in [9], more than 68.3 µM.
`CCNC(=S)N/N=C/c1cc([N+](=O)[O-])ccc1O`: the TGI in experiment [10], in [2], in experiment [3], in experiment [5], in [6] and in experiment [7] was more than 100 µM each time. In addition, the TGI in experiment [8] and in experiment [9] was more than 100 µM in each case.
On to `Cc1cccc2c(=O)cc(-c3ccccc3)[nH]c12`, for which the TGI in experiment [2], in [4], in experiment [5], in experiment [6], in [7] and in experiment [8] was more than 100 µM each time. The compound further displayed a TGI in experiment [9] of more than 100 µM.
With `CCN(CC)CCC(=O)Nc1ccc2c(c1)C(=O)c1ccc(NC(=O)CCN(CC)CC)cc1C2=O`, the TGI stood at 30 µM in [1]; 12 µM in experiment [2]; 18 µM in experiment [3]; 19.9 µM in experiment [4]; 19 µM in experiment [5]; 24.6 µM in experiment [6]. For the same compound, the TGI in [7] is 18.6 µM; in [8] it was 21.2 µM; in experiment [9], more than 100 µM.
Turning to `C[C@]12CC[C@H](O)CC1=CC[C@@H]1C2CC[C@]2(C)C(=O)N(N)C(=O)CC12` (stereo partly specified), the TGI in experiment [1], in [2], in experiment [3], in [4], in experiment [5] and in experiment [6] was more than 100 µM each time. In addition, the TGI in [7], in experiment [8] and in experiment [9] was more than 100 µM throughout.
In the case of `[N-]=[N+]=Nc1cc(=O)oc2ccccc12`, the TGI in experiment [2], in experiment [3], in [4], in experiment [5], in experiment [6] and in experiment [8] was more than 100 µM in each case. This compound came in with a TGI in [9] of more than 100 µM.
For `CC(N)Cc1ccc(C(=O)Cl)cc1` (stereo unspecified), the TGI in experiment [2], in experiment [3], in experiment [4], in [5], in experiment [6] and in experiment [8] was more than 100 µM throughout.
With `O=C1C(=Cc2ccc(O)cc2)N=C(c2ccccc2)N1n1c(-c2ccccc2)nc2ccccc2c1=O`, the TGI in experiment [10], in experiment [2], in experiment [3], in experiment [4], in [6] and in experiment [7] was more than 100 µM in each case. This compound also had a TGI in experiment [9] of more than 100 µM.
As for `CC(=O)O[C@H]1C(=O)[C@]2(C)[C@@H](OC(=O)OCCC(O)CO)C[C@H]3OC[C@@]3(OC(C)=O)[C@H]2[C@H](OC(=O)c2ccccc2)[C@]2(O)C[C@H](OC(=O)[C@H](O)[C@@H](NC(=O)c3ccccc3)c3ccccc3)C(C)=C1C2(C)C` (stereo partly specified), the TGI in experiment [10] is 0.0657 µM; in experiment [1], 25.2 µM; in [2], 19.8 µM; in [5] it was 46.8 µM; in [7], 88.4 µM; in [8], 18 µM. In experiment [9], this compound yielded a TGI of more than 100 µM.
`CN1CCN([C@H]2C[C@H]3[C@@H]4CC=C5C[C@@H](O)CC[C@]5(C)[C@H]4CC[C@]3(C)C2=O)CC1`: the TGI in [1], in [2], in experiment [3], in experiment [4], in experiment [5] and in experiment [6] was more than 100 µM throughout. The TGI in [7], in experiment [8] and in experiment [9] was more than 100 µM each time.
Take `CCOC(=O)c1c2ccccc2n2c(N)c(C(N)=O)nnc12`: the TGI in experiment [10] is more than 100 µM; in experiment [2], 42.6 µM; in experiment [3], 55 µM; in experiment [4], more than 100 µM; in experiment [5], more than 100 µM; in experiment [6], more than 100 µM. Besides, the TGI was 91.8 µM in experiment [7], 55.2 µM in experiment [8] and more than 100 µM in experiment [9].
Take `CC[C@@]1(C[C@H]2C[C@@]3(C(=O)OC)c4[nH]c5ccccc5c4CCN3C2=O)COC2(CCCCC2)O1`: the TGI is more than 100 µM in experiment [10]; more than 100 µM in [2]; more than 100 µM in experiment [3]; 96.3 µM in [5]; more than 100 µM in experiment [7]; more than 100 µM in experiment [9].
As for `CCCCCCCCCCCOc1ccc(C(=O)C(=O)c2ccc(OCCCCCCCCCCC)c(OCCCCCCCCCCC)c2)cc1OCCCCCCCCCCC`, the TGI in experiment [2], in experiment [3], in experiment [4], in [5], in experiment [6] and in [7] was more than 100 µM throughout. Besides, the TGI in experiment [8] and in experiment [9] was more than 100 µM in each case.
For `CC1C=C(CCCCCCCCCCCC[C@@H](O)[C@@H]2CC[C@@H]([C@@H]3CC[C@@H](C(O)CCCCCCCCCCCCC4=C[C@H](C)OC4=O)O3)O2)C(=O)O1` (stereo partly specified), the TGI is more than 100 µM in experiment [1]; more than 100 µM in experiment [2]; more than 100 µM in experiment [3]; more than 84.5 µM in [4]; more than 100 µM in [5]; more than 100 µM in experiment [6]. Further, the TGI in [7], in [8] and in experiment [9] was more than 100 µM throughout.
As for `Brc1ccc(N=c2nc3ccccn3n3nc(-c4ccccc4)cc23)cc1`, the TGI is 87.2 µM in experiment [1]; more than 100 µM in [2]; more than 100 µM in experiment [3]; more than 100 µM in experiment [4]; more than 100 µM in experiment [5]; more than 100 µM in [6]. The TGI was 95.1 µM in [7], more than 100 µM in experiment [8] and more than 100 µM in [9].
As for `CCOC(=O)N1CCC2(CC1)C[C@](C)(C(C)=O)C(C)O2` (stereo partly specified), the TGI in experiment [1], in [2], in experiment [3], in experiment [4], in experiment [5] and in [6] was more than 100 µM in each case. Further, the TGI in [7], in [8] and in experiment [9] was more than 100 µM each time.
Turning to `COc1ccc(N2C(=O)C3c4[nH]c5ccccc5c4C4CCC(C(C)(C)C)CC4C3C2=O)c(C)c1` (stereo unspecified), the TGI in experiment [10], in experiment [2], in experiment [3], in experiment [4], in experiment [6] and in experiment [7] was more than 100 µM in each case. Besides, the TGI in experiment [8] and in [9] was more than 100 µM in each case.
With `N#CC1=C(N)N(c2ccccc2)C(c2ccco2)C1(C#N)C#N` (stereo unspecified), the TGI in [10] came out at 37.4 µM; in [2], 47.9 µM; in experiment [3], 51.8 µM; in [4], 45.5 µM; in [5], 59.4 µM; in experiment [6], 38.9 µM. Moreover, the TGI in [7] was 71.4 µM; in [8] it was 43 µM; in experiment [9], 33.6 µM.
As for `CCC12C=CCN3CCC4(C(=C(C(=O)OC)[C@@H]1O)Nc1ccccc14)C32` (stereo partly specified), the TGI in experiment [1] amounted to 4.16 µM; in experiment [2], 3.9 µM; in experiment [3] it was 5.33 µM; in experiment [4] it was 6 µM; in experiment [5] it was 3.84 µM; in experiment [6], 4.13 µM. The values for the TGI in [7], in experiment [8] and in experiment [9] were 3.8 µM, 5.52 µM and 6.49 µM, respectively.
Consider `CC(=O)Nc1ccc(-c2nnc(SCC(=O)Nc3ccc([N+](=O)[O-])cc3)o2)cc1`, for which the TGI is 37.7 µM in experiment [1]; 23.4 µM in [2]; 29.9 µM in experiment [3]; more than 100 µM in experiment [4]; 33.3 µM in experiment [5]; 27.7 µM in [6]. The TGI stood at 28 µM in experiment [8] and 34.6 µM in experiment [9].
For the compound `CC(=O)NC1=C(NCCC(C)C)C(=O)c2ccccc2C1=O`, the TGI in experiment [1], in experiment [2], in [3], in experiment [5], in [6] and in [7] was more than 50 µM in each case. Also, the TGI in experiment [8] and in [9] was more than 50 µM each time.
As for `CC(C)CCCCCCCCCCCCC(=O)NCC(=O)NC1C(C)OC(Nc2ncnc3c2ncn3C)C(O)C1O` (stereo unspecified), the TGI in experiment [1] is 8.41 µM; in experiment [2], more than 100 µM; in experiment [3], more than 100 µM; in experiment [4], more than 100 µM; in experiment [5], more than 100 µM; in experiment [6], more than 100 µM. For the same compound, the TGI in experiment [7] is more than 31 µM; in experiment [8], 11.3 µM; in [9], 16.9 µM.
Consider `C[n+]1c2ccccc2c(/C=N\NS(=O)(=O)c2ccc(O)c(C(=O)O)c2)c2ccccc21`, for which the TGI in [1], in experiment [2], in experiment [3], in experiment [4], in experiment [5] and in experiment [6] was more than 100 µM throughout. Further, the TGI in experiment [7], in experiment [8] and in experiment [9] was more than 100 µM throughout.
As to `N.N.N.N.O=[N+]([O-])[O-].[Co+3].[N-]=[N+]=[N-].[N-]=[N+]=[N-]`, the TGI in experiment [1], in [2], in experiment [3], in experiment [4], in [5] and in experiment [6] was more than 100 µM each time. Moreover, the TGI in [7], in experiment [8] and in experiment [9] was more than 100 µM throughout.
As to `CNS(=O)(=O)NNS(=O)(=O)c1ccc2ccccc2c1`, the TGI in experiment [2], in experiment [3], in experiment [4], in [5], in [6] and in [7] was more than 100 µM in each case. For the same compound, the TGI in [8] and in experiment [9] was more than 100 µM each time.
Turning to `CN(C)CC[N+]1=Nc2cccc3cccc(c23)N1`, the TGI in [1] was more than 100 µM; in experiment [2] it was more than 100 µM; in experiment [3], more than 100 µM; in experiment [4], more than 66.8 µM; in experiment [5], more than 100 µM; in [6], more than 100 µM. Besides, the TGI in experiment [7] is more than 100 µM; in [8], more than 100 µM; in experiment [9], more than 60.9 µM.
For the compound `N#CN=C(N(Cc1ccccc1)Cc1ccccc1)N(Cc1ccccc1)Cc1ccccc1`, the TGI in experiment [2], in [3], in [4], in experiment [5], in [7] and in [9] was more than 100 µM each time.

Source of the values: PubChem BioAssay (NCI).
